These are literature values, as cited in patent publication US20070027217A1, “Composition and Method for Preventing Secondary Burn Ischemia” (priority 2005, published 2007).

For one series, the system named is burned hamster model. The settings on record: intravenous infusion.
Another series relates to 38% full thickness burn. Conditions: burn victim taking ibuprofen for arthritis.
The test system of another series is burns. Conditions: in vivo.

Molecules are shown by their SMILES. “Also recorded” adds a separate entry of the source.

In the case of `CC(C)Cc1ccc(C(C)C(=O)O)cc1` (centres unmarked) [ibuprofen], in the series with rat comb burn (injected immediately after burn trauma), the “start of restoration of blood flow within interspaces” value is 16 h. In addition, the “vascular occlusion / blood flow within the interspaces” value in the series on rat comb burn (systemic application or injection) was “preserves blood flow; also recorded: restores vessel patency and blood flow”. The “vasodilation response to burn injury” value in the series with burned hamster model was “reduction in the vasodilation response”. Besides, the “hypermetabolic response during recovery” value in the series with 38% full thickness burn was “failed to show the expected hypermetabolic response”.
Take `COc1ccc2c(c1)c(CC(=O)O)c(C)n2C(=O)c1ccc(Cl)cc1` [indomethacin]: the “vascular occlusion and loss of blood flow in burns” value in the series on burns was “does not prevent vascular occlusion and loss of blood flow”.
